Data from US10774080B2, “Pyrimidine compound as JAK kinase inhibitor” (THERAVANCE BIOPHARMA R&D IP, LLC, priority 2017, dated 2020).

Key:
in vitro = in vitro ADME; conditions: human, microsomes, pH 7.4, HLM Clint
Description: Assay 17: Human Liver Microsome Assay The objective of this assay was to assess the metabolic stability of test compounds in an in vitro human liver sub-fraction. Human liver microsomes obtained from Bioreclamation-IVT (Baltimore, Md.) were thawed on ice and diluted into 0.1M potassium phosphate buffer pH 7.4 to yield final incubation protein concentrations of 0.1 mg/mL. […] Incubations were conducted at 37° C. temperature and test aliquots were taken at time points 0, 5, 8, 15, 30 and 45 minutes. […] The resulting samples were injected onto an LC-MS/MS system for analysis. For each incubation, the peak area of the analytes in each t0 aliquot was set to 100% and the peak areas from subsequent time point aliquots were converted to percentage of parent compound remaining relative to t0. The percentage of parent compound remaining was converted to natural log scale and plotted versus time in minutes. A linear regression analysis was performed for the initial decline of the parent disappearance profile and a formula for the best-fit line determined. The slope of the resultant line was normalized to protein concentration in mg/mL protein or number of cells/mL and CLint was calculated as follows for liver microsomes: CLint (μL·min^−1·mg^−1)=(Slope×1000)/[protein,mg/mL]

[1] = Dynamic moisture sorption (DMS); assay type: physicochemical; conditions: for total moisture uptake between 5 and 90% RH: 25° C.
Description: Dynamic moisture sorption (DMS) measurement was performed using a VTI atmospheric microbalance, SGA-100 system (VTI Corp., Hialeah, Fla. 33016). A weighed sample was used and the humidity was lowest possible value (close to 0% RH) at the start of the analysis. The DMS analysis consisted of an initial drying step (0% RH) for 120 minutes, followed by two cycles of sorption and desorption with a scan rate of 5% RH/step over the humidity range of 5% RH to 90% RH. The DMS run was performed isothermally at 25° C. The total moisture uptake between 5 and 90% RH was 1.96%.
The DMS analysis consisted of an initial drying step (0% RH) for 120 minutes, followed by two cycles of sorption and desorption with a scan rate of 5% RH/step over the humidity range of 5% RH to 90% RH. The DMS run was performed isothermally at 25° C. The total moisture uptake between 5 and 90% RH was about 0.02%.

Compound	microsomal CLint at 0.1 μM (in vitro) [µL/min/mg]	hygroscopicity (in words) [1]	total moisture uptake between 5 and 90% RH [1]
CCS(=O)(=O)N1[C@@H]2CCC[C@H]1C[C@H](N(C)c1nc(Nc3cc(C)[nH]n3)cc(C(N)=O)n1)C2 [Compound C-1, 2-(((1R,3s,5S)-9-(ethylsulfonyl)-9-azabicyclo[3.3.1]nonan-3-yl)(methyl)amino)-6-((5-methyl-1H-pyrazol-3-yl)amino)pyrimidine-4-carboxamide, reference compound]	6		
Cc1cc(Nc2cc(CO)nc(N(C)[C@@H]3C[C@H]4CC[C@@H](C3)N4CCC#N)n2)n[nH]1 [Compound C-2, 3-((1R,3s,5S)-3-((4-(hydroxymethyl)-6-((5-methyl-1H-pyrazol-3-yl)amino)pyrimidin-2-yl)(methyl)amino)-8-azabicyclo[3.2.1]octan-8-yl)propanenitrile, reference compound]	12		
CCS(=O)(=O)N1[C@@H]2CCC[C@H]1C[C@H](N(C)c1nc(CO)c(F)c(Nc3cc(C)[nH]n3)n1)C2 [Form II]		non-hygroscopic	about 0.02%
CCS(=O)(=O)N1[C@@H]2CCC[C@H]1C[C@H](N(C)c1nc(CO)c(F)c(Nc3cc(C)[nH]n3)n1)C2 [Form I]			1.96%
